Experimental data: ChEMBL document CHEMBL1156829 (Proc Natl Acad Sci U S A, 2008)

Key:
Plasmodium falciparum [1] = assay: NOVARTIS: Inhibition of Plasmodium falciparum 3D7 (drug-susceptible) proliferation in erythrocyte-based infection assay; assay type: functional, organism-based; conditions: Plasmodium falciparum, 3D7
Plasmodium falciparum [2] = assay: NOVARTIS: Inhibition of Plasmodium falciparum W2 (drug-resistant) proliferation in erythrocyte-based infection assay; assay type: functional, organism-based
[3] = NOVARTIS: Cytotoxicity against human hepatocellular carcinoma cell line (Huh7); assay type: toxicity, cell-based, Huh-7; conditions: Huh7 cells (hepatocellular carcinoma cell line)
[4] = Plasmodium falciparum, W2, read-out: EC50

SMILES	EC50 (Plasmodium falciparum [1]) [nM]	EC50 (Plasmodium falciparum [2]; [4]) [nM]	CC50 [3] [nM]	EC50 (Plasmodium falciparum [2])
NCCCCCCNC(=S)Nc1ccccc1	> 1410	> 859	> 10000	–
O=C(NNc1cccc(F)n1)C(F)(F)F	670	340	> 10000	–
CC1(C)N=C(N)N=C(N)N1c1ccc(F)cc1	21.8	1860	51000	–
Cc1cc(F)ccc1NC(=O)C(C)n1c2ccccc2c2nc(=O)cc(C)n21 (stereo not drawn)	283	126	> 100000	–
COc1ccc(Nc2nc(NCc3ccco3)c3ccccc3n2)cc1	253	421	2970	–
CC1=C(C(=O)OC(C)C)C(c2ccc(Br)cc2)C2=C(CC(c3ccc(Cl)cc3)CC2=O)N1 (stereo not drawn)	1440	404	> 100000	–
Cc1ccc(-c2nn(CC(=O)Nc3cccc(C)c3)c(=O)c3ccccc23)cc1	> 1090	> 1250	> 10000	–
COc1cccc(CCN2Cc3ccc(C(=O)NC(C)C)cc3N=C2c2cccnc2)c1	17.1	> 42.3	> 10000	–
Nc1cc(OC(=O)c2ccccc2)nn1S(=O)(=O)c1ccc(Cl)cc1	> 1250	923	> 10000	–
COC(=O)CSc1nnc2c(n1)[nH]c1c(OC)ccc(Cl)c12	642	736	> 10000	–
COC(=O)c1ccc(S(=O)(=O)N2CCC3(CC2)Nc2ccccc2-n2cccc23)cc1	> 1250	> 163	> 10000	–
CC[n+]1c(C)n(-c2ccccc2)c2ccc(C3Nc4ccccc4S3)cc21 (stereo not drawn)	1180	734	> 100000	–
CN1CCN(C(=S)NC(=O)/C=C/c2ccc(F)cc2)CC1	> 1250	> 874	> 10000	–
CC1CN(C(=O)C(Cl)(Cl)Cl)C(C)CN1C(=O)C(Cl)(Cl)Cl (stereo not drawn)	2050	302	> 100000	–
COc1ccc(C2NCCc3c2[nH]c2ccccc32)cc1CSc1nc2ccccc2[nH]1 (stereo not drawn)	1750	2590	20400	–
COc1ccc(OC)c(-c2ccc(O)c(CNCC3CCCCC3)c2)c1	350	120	> 10000	–
CCCC(c1nnnn1C1CCCCC1)N1CCN(C(=O)c2ccco2)CC1 (stereo not drawn)	1330	616	> 100000	–
Nc1nc(N)c2cc(S(=O)(=O)N3CCSCC3)ccc2n1	116	> 1250	15100	–

SMILES	EC50 (Plasmodium falciparum [1]) [nM]	EC50 (Plasmodium falciparum [2]; [4]) [nM]	CC50 [3] [nM]	EC50 (Plasmodium falciparum [2])
CC(=O)Nc1ccc2nc(C)sc2c1	> 1250	> 445	> 10000	–
CC(C)(C)NCC(O)Cn1c2ccc(Br)cc2c2cc(Br)ccc21 (stereo not drawn)	213	14.1	20700	–
CCOC(=O)c1ccc(-c2c(-c3cc(CC)c(OC)cc3O)noc2C)o1	927	433	13800	–
COc1ccc2c(c1)N(C(=O)CSc1nc3ccccc3o1)C(C)(C)c1ssc(=S)c1-2	345	392	> 100000	–
O=C1C2C(C(=O)N1c1ccc(F)cc1)C1(c3ccccc3)C(=O)C2(c2ccccc2)C(c2ccccc2)=C1c1ccccc1 (stereo not drawn)	563	474	> 100000	–
c1ccc(-c2nc(NCCCn3ccnc3)cc(-c3ccncc3)n2)cc1	238	458	> 10000	–
CCn1c(SCc2ccc([N+](=O)[O-])cc2)nc2sc3c(c2c1=O)CCN(C)C3	470	808	> 100000	–
CC[n+]1c(C=C2C=CN(c3ccc(Cl)cc3)C=C2)ccc2ccccc21	725	1090	> 10000	–
O=C(CCl)NCCCCNc1ccnc2cc(Cl)ccc12	> 811	–	> 10000	No fit
CC(=O)N/C(=C\c1ccc(OC(F)F)cc1)C(=O)O	> 1170	432	> 10000	–
COc1ccc(CCNC(=O)Cn2c(C)cc3ccccc3c2=O)cc1OC	> 1540	796	> 10000	–
Cc1cccc(OC(C)C(=O)N2CCc3ccccc32)c1 (stereo not drawn)	3480	1140	> 100000	–
C=CC[n+]1cccc2c3ccccc3ccc21	1720	1900	> 100000	–
COC1=CC(=O)c2c(ccc3c(OC)c(O)ccc23)C1=O	200	302	> 10000	–
Cc1cccc[n+]1CCCCCCCCCC[n+]1ccccc1C	102	81.8	> 100000	–
CCOC(=O)C1=C(C)NC2=C(C(=O)CC(C)(C)C2)C1c1ccccn1 (stereo not drawn)	> 12500	1260	> 100000	–
CC(C)(C)NC(=O)C(c1cccs1)N(CCCN1CCOCC1)C(=O)c1ccc(-c2ccccc2)[nH]1 (stereo not drawn)	1230	1110	> 10000	–
Oc1ccc(-c2ccc(F)cc2)cc1CNCCCn1ccnc1	1060	1430	> 10000	–
